≈ marks a conversion by molar mass, not a printed value. *1 amine or outer side, *2 acyl side, *3 side chain or, on linkers, in order; H or OH if unused. Where a SMILES comes first, the peptide text is derived from it. Bridges are numbered along the chain shown (N, C = ends). [ ]: non-standard residue; d: D form. The star is where a group is joined. Biphenylcarbonyl(4'-Bu) = CCCCc1ccc(-c2ccc(C(=O)*)cc2)cc1; Benzoyl(4-hexyl) = CCCCCCc1ccc(C(=O)*)cc1; Decanoyl(3R-OH) = CCCCCCC[C@@H](O)CC(=O)*; Butanoyl(4-OPh) = O=C(CCCOc1ccccc1)*; X1 = CCCCCC1CCC(C(=O)*)CC1; NH(2-ClPh) = Clc1ccccc1N*; dDab = NCC[C@@H](N)C(=O)O; hSer = N[C@@H](CCO)C(=O)O; Octanoyl = CCCCCCCC(=O)*; Dab = NCC[C@H](N)C(=O)O; CO = O=C([*:1])[*:2]
Legend:
A. baumannii ATCC 19606 = test: microbe, parasite or virus in culture; conditions: ATCC 19606, 18 h
Protocol: (§1) All compounds synthesised in this study were assessed for their minimum inhibitory concentrations (MIC, mg/L) by broth microdilution assay against five antibiotic-sensitive and resistant ATCC reference strains covering the Gram-negative ESKAPE pathogens (Escherichia coli, Klebsiella pneumoniae, A. baumannii, and P. aeruginosa) (Table 1, Table 2 and Table 3). Staphylococcus aureus was also included as a representative Gram-positive bacterial strain. […] Polymyxin B 1, colistin 2, vancomycin and gentamicin were used as positive inhibitor comparator compounds. Compounds were counter-screened against human proximal tubular epithelial cells (HK-2), using LDH release as a general indicator of cellular toxicity.

E. coli ATCC 25922 = test: microbe, parasite or virus in culture; conditions: ATCC 25922, 18 h
Protocol: as §1

K. pneumoniae ATCC 13833 = test: microbe, parasite or virus in culture; conditions: ATCC 13833, 18 h
Protocol: as §1

[1] = test system: K. pneumoniae ATCC 700603; test: microbe, parasite or virus in culture; conditions: ATCC 700603, 18 h
Protocol: as §1

K. pneumoniae BAA 2146 = test: microbe, parasite or virus in culture; conditions: BAA 2146, 18 h
Protocol: as §1

P. aeruginosa ATTC 27853 = test: microbe, parasite or virus in culture; conditions: ATTC 27853, 18 h
Protocol: as §1

S. aureus ATCC 25923 = test: microbe, parasite or virus in culture; conditions: ATCC 25923, 18 h
Protocol: as §1

in vitro = conditions: human
Protocol: as §1
Cytotoxicity to human kidney proximal tubular epithelial cell line, HK-2 (ATCC CRL-2190, sourced from ATCC; Manassas, VA, USA) was determined using the LDH assay as previously described. In brief, HK-2 cells were seeded as 2000 cells/well in black-walled clear bottom 384-well tissue culture treated plates (Corning, catalogue No. 3712) in DMEM/F12 medium (Gibco® 10565-042) containing 10% of Fetal Bovine Serum (FBS, Gibco® 10099-141) and incubated for 24 h at 37 °C, 5% CO2. Compounds were then added into each well with a concentration series from 300 µM to 2.3 µM in 2-fold dilutions. Colistin and polymyxin B were used as controls and tested at a final concentration range of 1 mM to 7.8 µM. The cells were incubated with the compounds for 24 h at 37 °C, 5% CO2. After the incubation, 5 µL of culture medium was added to 45 µL of LDH assay buffer (Biovision, K313-500) and incubated for 30 min at room temperature. The absorbance (ABS) was then read at 450 nm using a Polar Star Omega plate reader. The data was analysed by Prism 6 software (GraphPad Software, La Jolla, CA, USA). Results were calculated using the following equation: cytotoxicity %= (ABSsamples − ABSuntreated/ABS1%Triton X-100 − ABSuntreated) × 100.

| MIC A. baumannii ATCC 19606 (A. baumannii ATCC 19606) | MIC E. coli ATCC 25922 (E. coli ATCC 25922) | MIC K. pneumoniae ATCC 13833 (K. pneumoniae ATCC 13833) | MIC K. pneumoniae ATCC 700603 [1] | MIC K. pneumoniae BAA 2146 (K. pneumoniae BAA 2146) | MIC P. aeruginosa ATTC 27853 (P. aeruginosa ATTC 27853) | MIC S. aureus ATCC 25923 (S. aureus ATCC 25923) | SMILES | CC50 at 24 h (in vitro) |
| --- | --- | --- | --- | --- | --- | --- | --- | --- |
| 16 µg/mL (≈ 14.8 µM) | 2 µg/mL (≈ 1.85 µM) | >32 µg/mL | 16 µg/mL (≈ 14.8 µM) | 4 µg/mL (≈ 3.7 µM) | 8 µg/mL (≈ 7.39 µM) | >32 µg/mL | CC(C)C[C@@H]1NC(=O)[C@@H](Cc2ccccc2)NC(=O)[C@H](CCN)NC(=O)[C@@H](NC(=O)CNC(=O)[C@@H](NC(=O)CCCOc2ccccc2)[C@@H](C)O)CCNC(=O)[C@H]([C@@H](C)O)NC(=O)[C@H](CCN)NC(=O)[C@H](CCN)NC1=O [Compound 51] ({Butanoyl(4-OPh)}-TG[Dab][Dab][dF]L[Dab][Dab]T; lactam 3-C) | > 300 µM |
| >32 µg/mL | >32 µg/mL | >32 µg/mL | 32 µg/mL (≈ 27.2 µM) | >32 µg/mL | >32 µg/mL | >32 µg/mL | CCCCCCCC(=O)N[C@H](C(=O)N[C@@H](Cc1c[nH]c2ccccc12)C(=O)N[C@H]1CCNC(=O)[C@H]([C@@H](C)O)NC(=O)[C@H](CCN)NC(=O)[C@H](CCN)NC(=O)[C@H](CC(C)C)NC(=O)[C@@H](Cc2ccccc2)NC(=O)[C@H](CCN)NC1=O)[C@@H](C)O [Compound 46] (Octanoyl-TW[Dab][Dab][dF]L[Dab][Dab]T; lactam 3-C) | > 300 µM |
| 32 µg/mL (≈ 29.3 µM) | 1 µg/mL (≈ 0.917 µM) | >32 µg/mL | 4 µg/mL (≈ 3.67 µM) | 4 µg/mL (≈ 3.67 µM) | 4 µg/mL (≈ 3.67 µM) | >32 µg/mL | CCCCCCC[C@@H](O)CC(=O)N[C@H](C(=O)NCC(=O)N[C@H]1CCNC(=O)[C@H]([C@@H](C)O)NC(=O)[C@H](CCN)NC(=O)[C@H](CCN)NC(=O)[C@H](CC(C)C)NC(=O)[C@@H](Cc2ccccc2)NC(=O)[C@H](CCN)NC1=O)[C@@H](C)O [Compound 52] ({Decanoyl(3R-OH)}-TG[Dab][Dab][dF]L[Dab][Dab]T; lactam 3-C) | > 300 µM |
| >32 µg/mL | 16 µg/mL (≈ 14.7 µM) | >32 µg/mL | >32 µg/mL | >32 µg/mL | >32 µg/mL | >32 µg/mL | CCCCCCCC(=O)N[C@H](C(=O)N[C@@H](CCO)C(=O)N[C@H]1CCNC(=O)[C@H]([C@@H](C)O)NC(=O)[C@H](CCN)NC(=O)[C@H](CCN)NC(=O)[C@H](CC(C)C)NC(=O)[C@@H](Cc2ccccc2)NC(=O)[C@H](CCN)NC1=O)[C@@H](C)O [Compound 37] (Octanoyl-T[hSer][Dab][Dab][dF]L[Dab][Dab]T; lactam 3-C) | 271 µM |
| 32 µg/mL (≈ 27.8 µM) | 2 µg/mL (≈ 1.74 µM) | 16 µg/mL (≈ 13.9 µM) | 4 µg/mL (≈ 3.47 µM) | 2 µg/mL (≈ 1.74 µM) | 1 µg/mL (≈ 0.868 µM) | 8 µg/mL (≈ 6.95 µM) | CCCCCCc1ccc(C(=O)N[C@H](C(=O)N[C@@H](CCN)C(=O)N[C@H]2CCNC(=O)[C@H]([C@@H](C)O)NC(=O)[C@H](CCN)NC(=O)[C@H](CCN)NC(=O)[C@H](CC(C)C)NC(=O)[C@@H](Cc3ccccc3)NC(=O)[C@H](CCN)NC2=O)[C@@H](C)O)cc1 [Compound 12] ({Benzoyl(4-hexyl)}-T[Dab][Dab][Dab][dF]L[Dab][Dab]T; lactam 3-C) | 46 µM |
|  |  | 0.5 µg/mL (≈ 0.436 µM) |  |  |  | >32 µg/mL | CCCCCCCC(=O)N[C@@H](CCN)C(=O)N[C@H](C(=O)NCC(=O)N[C@H]1CCNC(=O)[C@H]([C@@H](C)O)NC(=O)[C@H](CCN)NC(=O)[C@H](CCN)NC(=O)[C@H](CC(C)C)NC(=O)[C@@H](Cc2ccccc2)NC(=O)[C@H](CCN)NC1=O)[C@@H](C)O [Compound 50] (Octanoyl-[Dab]TG[Dab][Dab][dF]L[Dab][Dab]T; lactam 4-C) | > 300 µM |
| 32 µg/mL (≈ 28 µM) | 4 µg/mL (≈ 3.5 µM) | >32 µg/mL | 8 µg/mL (≈ 7 µM) | 4 µg/mL (≈ 3.5 µM) | 4 µg/mL (≈ 3.5 µM) |  | CCCCCC1CCC(C(=O)N[C@H](C(=O)N[C@H](CCN)C(=O)N[C@H]2CCNC(=O)[C@H]([C@@H](C)O)NC(=O)[C@H](CCN)NC(=O)[C@H](CCN)NC(=O)[C@H](CC(C)C)NC(=O)[C@@H](Cc3ccccc3)NC(=O)[C@H](CCN)NC2=O)[C@@H](C)O)CC1 (stereo partly drawn) [Compound 24] (X1-T[dDab][Dab][Dab][dF]L[Dab][Dab]T; lactam 3-C) | 60 µM |

Second part, the molecule before the results:

| SMILES | MIC A. baumannii ATCC 19606 (A. baumannii ATCC 19606) | MIC E. coli ATCC 25922 (E. coli ATCC 25922) | MIC K. pneumoniae ATCC 13833 (K. pneumoniae ATCC 13833) | MIC K. pneumoniae ATCC 700603 [1] | MIC K. pneumoniae BAA 2146 (K. pneumoniae BAA 2146) | MIC P. aeruginosa ATTC 27853 (P. aeruginosa ATTC 27853) | MIC S. aureus ATCC 25923 (S. aureus ATCC 25923) | CC50 at 24 h (in vitro) |
| --- | --- | --- | --- | --- | --- | --- | --- | --- |
| CC(C)C[C@@H]1NC(=O)[C@@H](Cc2ccccc2)NC(=O)[C@H](CCN)NC(=O)[C@@H](NC(=O)[C@H](CCN)NC(=O)[C@@H](N)[C@@H](C)O)CCNC(=O)[C@H]([C@@H](C)O)NC(=O)[C@H](CCN)NC(=O)[C@H](CCN)NC1=O [PMBN, polymyxin B nonapeptide, reference compound] (H-T[Dab][Dab][Dab][dF]L[Dab][Dab]T; lactam 3-C (inferred)) | >32 µg/mL | >32 µg/mL | >32 µg/mL | >32 µg/mL | >32 µg/mL | 2 µg/mL (≈ 2.08 µM) | >32 µg/mL | > 300 µM |
| CCCCCCCC(=O)N[C@H](C(=O)NCC(=O)N[C@H]1CCNC(=O)[C@H]([C@@H](C)O)NC(=O)[C@H](CCN)NC(=O)[C@H](CCN)NC(=O)[C@H](CC(C)C)NC(=O)[C@@H](Cc2ccccc2)NC(=O)[C@H](CCN)NC1=O)[C@@H](C)O [Compound 49] (Octanoyl-TG[Dab][Dab][dF]L[Dab][Dab]T; lactam 3-C) | >32 µg/mL | 4 µg/mL (≈ 3.82 µM) | >32 µg/mL | >32 µg/mL | >32 µg/mL | >32 µg/mL | >32 µg/mL | 163 µM |
| CC(C)C[C@@H]1NC(=O)[C@@H](Cc2ccccc2)NC(=O)[C@H](CCN)NC(=O)[C@@H](NC(=O)[C@H](CCN)NC(=O)[C@@H](NC(=O)[C@H](CCN)NC(=O)Nc2ccccc2Cl)[C@@H](C)O)CCNC(=O)[C@H]([C@@H](C)O)NC(=O)[C@H](CCN)NC(=O)[C@H](CCN)NC1=O [Compound 16] ({NH(2-ClPh)-CO}-[Dab]T[Dab][Dab][Dab][dF]L[Dab][Dab]T; lactam 4-C) |  |  |  |  |  |  |  | > 300 µM |
| CCCCc1ccc(-c2ccc(C(=O)N[C@H](C(=O)N[C@H](CCN)C(=O)N[C@H]3CCNC(=O)[C@H]([C@@H](C)O)NC(=O)[C@H](CCN)NC(=O)[C@H](CCN)NC(=O)[C@H](CC(C)C)NC(=O)[C@@H](Cc4ccccc4)NC(=O)[C@H](CCN)NC3=O)[C@@H](C)O)cc2)cc1 [Compound 23] ({Biphenylcarbonyl(4'-Bu)}-T[dDab][Dab][Dab][dF]L[Dab][Dab]T; lactam 3-C) |  |  |  |  |  |  |  | 29 µM |
| CCCCCCCC(=O)N[C@@H](CCN)C(=O)N[C@H](C(=O)N[C@H]1CCNC(=O)[C@H]([C@@H](C)O)NC(=O)[C@H](CCN)NC(=O)[C@H](CCN)NC(=O)[C@H](CC(C)C)NC(=O)[C@@H](Cc2ccccc2)NC(=O)[C@H](CCN)NC1=O)[C@@H](C)O [Compound 9] (Octanoyl-[Dab]T[Dab][Dab][dF]L[Dab][Dab]T; lactam 3-C) | >32 µg/mL | >32 µg/mL | >32 µg/mL | >32 µg/mL | >32 µg/mL | 32 µg/mL (≈ 29.4 µM) | >32 µg/mL | 79 µM |
| CCCCCCCC(=O)N[C@@H](CCN)C(=O)N[C@H](C(=O)N[C@H](CO)C(=O)N[C@H]1CCNC(=O)[C@H]([C@@H](C)O)NC(=O)[C@H](CCN)NC(=O)[C@H](CCN)NC(=O)[C@H](CC(C)C)NC(=O)[C@@H](Cc2ccccc2)NC(=O)[C@H](CCN)NC1=O)[C@@H](C)O [Compound 34] (Octanoyl-[Dab]T[dS][Dab][Dab][dF]L[Dab][Dab]T; lactam 4-C) |  |  | 0.5 µg/mL (≈ 0.425 µM) | 2 µg/mL (≈ 1.7 µM) | 16 µg/mL (≈ 13.6 µM) |  | >32 µg/mL | 139 µM |

From PMC6384738, “Structure-Function Studies of Polymyxin B Lipononapeptides” (Molecules, 2019)
